#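 Exposure lasted 48 hours, with cells grown in 96-well plates and compounds tested at five concentrations. The concentration for 50% growth inhibition is given as GI50. The concentration for full growth arrest is given as TGI.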
# Assays:
# Experiment in all cases: inhibition of tumour cell growth, NCI panel, 48 h
# [1] = test system: A498 renal
# [2] = test system: ACHN renal
# [3] = test system: DU-145 prostate
# [4] = test system: MDA-MB-435
# [5] = test system: MOLT-4 leukemia
# [6] = test system: NCI-H460 lung
# [7] = test system: RXF 393 renal
# [8] = test system: SF-268 CNS
Structure (SMILES),GI50 [1] [µM],TGI [1] [µM],GI50 [2] [µM],TGI [2] [µM],GI50 [3] [µM],TGI [3] [µM],GI50 [4] [µM],TGI [4] [µM],GI50 [5] [µM],TGI [5] [µM],GI50 [6] [µM],TGI [6] [µM],GI50 [7] [µM],TGI [7] [µM],GI50 [8] [µM],TGI [8] [µM]
CC(=O)Nc1sc2c(c1-c1nc3ccccc3s1)CNC2,7.4,14.9,1.28,7.56,2.93,> 50,3.48,12.5,2.03,9.2,1.94,10.2,2.25,7.96,2.94,15
COc1cc(OC)cc(-c2cncn2-c2ccc(-c3nc4cc(OC)c(OC)c(OC)c4s3)cc2)c1,> 100,> 100,11.5,> 100,31.1,> 100,6.07,> 100,4.1,> 100,7.46,> 100,30.2,> 100,22.1,> 100
O=C1c2ccccc2C(=O)c2c1ccc1c2OCO1,–,> 100,–,–,–,> 100,–,> 100,–,> 100,–,–,–,> 100,–,> 100
Nc1c(C(=O)Nc2ccccc2)sc2nc3c(cc12)CCCC3,0.227,30,1.61,> 100,1.67,> 58.9,0.172,0.415,0.693,> 100,0.458,> 75.9,0.744,8.17,2.2,> 100
CCN(CC)CC(O)C1CCC(c2ccccc2)CC1 (stereo unspecified),–,42.9,–,57.5,–,> 100,–,40.2,–,> 100,–,85.5,–,45.1,–,> 100
C/C(=N\NC(=O)c1ccncc1)c1ccc(O)cc1O,8.61,> 100,4.48,> 100,3.63,> 100,5.03,> 100,4.14,> 100,5,> 100,12.2,> 100,2.19,> 100
CC1=CC2C(C(C)C)CC1C1C(=O)OC(=O)C21 (stereo unspecified),–,> 100,–,> 100,–,> 100,–,> 100,–,–,–,> 100,–,> 100,–,> 100
COc1ccc(-c2nocc2-c2cc(OC)c(OC)c(OC)c2)cc1,0.0441,2.9,1.53,> 70.3,0.286,> 100,0.0239,0.13,0.3,> 100,0.048,15.5,0.14,0.797,0.683,> 85.9
Cc1nn(-c2ccc(Br)cc2)c(C)c1CC(=O)c1cc(O)ccc1O,7.18,47.3,9.16,24.6,14.8,44.6,6.92,> 50,3.26,> 50,8.34,19.3,9.01,27.8,5.6,17.6
O=[N+]([O-])c1ccc(-c2cn(-c3ccc(Cl)cc3)cn2)cc1,–,> 100,–,> 100,–,> 100,–,> 100,–,> 100,–,> 100,–,–,–,> 100
CN1CCCN(C(c2ccccc2)c2ccc(Br)cc2)CC1 (stereo unspecified),5.86,17.9,3.62,14.1,10.5,22.3,1.87,3.83,3.92,58.2,6.55,19,2.65,8.67,2.76,8.97
Cc1ccc(NC(=O)c2nc(S(C)=O)oc2-c2ccc(F)cc2)cc1Nc1nccc(-c2cccnc2)n1 (stereo unspecified),7.19,20.2,1.69,3.1,1.91,3.75,2.13,4.77,2.17,6.82,2.09,4.06,1.86,3.46,2.15,4.61
C=C1N(C)c2ccc(Cl)cc2C1(C)C,11,43.6,24.6,> 100,6.66,> 100,3.7,23.5,6.94,55,4.94,36.1,6.41,35.8,5.71,> 100
CCN(CC(COc1ccc2c(c1)[n+]([O-])nc(N)[n+]2[O-])OC(C)=O)C(C)=O (stereo unspecified),–,> 100,–,> 100,–,–,–,> 100,–,> 100,–,–,–,–,–,> 100
O=C(CCl)Nc1ccc2c(c1)C(=O)c1ccc(NC(=O)CCl)cc1C2=O,3.49,27.6,–,–,1.41,3.45,0.395,1.81,0.241,2.13,0.387,1.53,0.288,0.928,0.386,1.92
COc1ccc(-c2coc3cc(OC)cc(O)c3c2=O)cc1,–,89.1,–,> 100,–,> 100,–,> 100,–,–,–,> 100,–,83.1,–,> 100
O=CC1(C2(C=O)c3ccccc3-c3ccccc32)c2ccccc2-c2ccccc21,2.33,5.36,1.83,4.19,2.29,5.83,1.92,4.51,1.38,3.33,1.56,2.85,–,–,2.37,6.03
COc1cc2c3c(n(CCCCl)c(=O)c2cc1OC)-c1ccc(C#N)cc1C3=O,16.1,58.8,–,–,10.7,> 100,> 100,> 100,1.68,> 100,10.8,> 100,3.85,18.1,19.5,> 100

# Source: PubChem BioAssay (NCI)
